Assay results taken from ChEMBL document CHEMBL6120994, “Unravelling the potential of natural chelating agents in the control of Staphylococcus aureus and Pseudomonas aeruginosa biofilms” (Eur J Med Chem, 2025).
Calls of active or inactive are those of the source. The rule behind the calls is not given here.

Legend:
[1] = Metal chelating activity at iron(III) in chrome azurol sulphonate solution at 1000 ug/ml incubated for 30 mins by spectrophotometric analysis; details: dose 1000.0 µg/ml
Staphylococcus aureus [2] = assay: Antibacterial activity against Staphylococcus aureus CECT 976 assessed as inhibition of bacterial growth by measuring inhibition zone diameter at 1000 ug/ml incubated for 24 hrs in presence of gentamicin by disc diffusion method (reference value: 12 +/- 1.63 mm); format: functional; details: read-out: DIZ
Staphylococcus aureus [3] = assay: Antibacterial activity against Staphylococcus aureus CECT 976 assessed as inhibition of bacterial growth by measuring inhibition zone diameter at 1000 ug/ml incubated for 24 hrs in presence of tobramycin by disc diffusion method (reference value: 12.5 +/- 1.29 mm); format: functional; details: read-out: DIZ
Staphylococcus aureus [4] = assay: Antibiotic adjuvant activity against Staphylococcus aureus CECT 976 assessed as potentiation of tobramycin-induced antibacterial activity by measuring tobramycin MIC at 62.5 ug/ml measured after 24 hrs by checkerboard assay (reference value: 4 ug/ml); format: functional; details: dose 62.5 µg/ml
Pseudomonas aeruginosa [5] = assay: Antibiotic adjuvant activity against Pseudomonas aeruginosa ATCC 10145 assessed as potentiation of ciprofloxacin-induced antibacterial activity by measuring fractional inhibitory concentration index (MIC) at 15.6 ug/ml measured after 24 hrs by checkerboard assay; format: functional; details: dose 15.6 µg/ml
Staphylococcus aureus [6] = assay: Antibiotic adjuvant activity against Staphylococcus aureus CECT 976 assessed as potentiation of tobramycin-induced antibacterial activity by measuring fractional inhibitory concentration index (MIC) at 62.5 ug/ml measured after 24 hrs by checkerboard assay; format: functional; details: dose 62.5 µg/ml
Staphylococcus aureus [7] = assay: Antibiofilm activity against Staphylococcus aureus CECT 976 assessed as reduction in metabolic activity of biofilm cells at 500 to 1000 ug/ml by resazurin staining based fluorescence analysis; format: functional; details: dose 500-1000 µg/ml; at 500 to 1000 µg/mL
Staphylococcus aureus [8] = assay: Antibiofilm activity against Staphylococcus aureus CECT 976 assessed as reduction in biofilm cells culturability at 500 to 1000 ug/ml measured after 24 hrs by visual counting method; format: functional, organism-based; details: dose 500-1000 µg/ml
Staphylococcus aureus [9] = assay: Antibiofilm activity against preestablished 24 hr-old Staphylococcus aureus CECT 976 assessed as reduction in metabolic activity of biofilm cells at 10XMTC by resazurin staining based fluorescence analysis; format: functional
Pseudomonas aeruginosa [10] = assay: Antibiofilm activity against preestablished 24 hr-old Pseudomonas aeruginosa ATCC 10145 assessed as reduction in metabolic activity of biofilm cells at MTC by resazurin staining based fluorescence analysis; format: functional, organism-based
Pseudomonas aeruginosa [11] = assay: Antibiotic adjuvant activity against preestablished 24-hr old Pseudomonas aeruginosa ATCC 10145 assessed as potentiation of ciprofloxacin-induced antibiofilm activity by measuring reduction of CFU biofilm cells at 1000 ug/ml measured after 24 hrs in presence of 1/8XMIC ciprofloxacin by visual counting method; format: functional, organism-based; details: dose 1000.0 µg/ml
Cell membrane [12] = assay: Disruption of membrane integrity in pre-established 24 hr-old Staphylococcus aureus CECT 976 biofilm at 10XMTC measured after 24 hrs by PI staining based flow cytomtery; format: subcellular
Cell membrane [13] = assay: Disruption of membrane integrity in pre-established 24 hr-old Staphylococcus aureus CECT 976 biofilm at 10XMTC measured after 24 hrs by SYTO9/PI dye based epifluorescence microscopy; format: subcellular
Staphylococcus aureus [14] = assay: Inhibition of virulence production in Staphylococcus aureus CECT 976 biofilms assessed as diameter of gelatinases halo at 1/2XMTC measured after 48 hrs in presence of 1/4XMIC tobramycin (reference value: 11.3 to 11.8 mm); format: functional
Staphylococcus aureus [15] = assay: Inhibition of virulence production in Staphylococcus aureus CECT 976 biofilms assessed as diameter of gelatinases halo at 1XMTC measured after 48 hrs (reference value: 11.5 to 11.8 mm); format: functional
Staphylococcus aureus [16] = assay: Inhibition of virulence production in Staphylococcus aureus CECT 976 biofilms assessed as diameter of lipases halo at 1/2XMTC measured after 48 hrs in presence of 1/8XMIC tobramycin (reference value: 12.5 to 12.8 mm); format: functional
Staphylococcus aureus [17] = assay: Inhibition of virulence production in Staphylococcus aureus CECT 976 biofilms assessed as diameter of lipases halo at 1/2XMTC measured after 48 hrs in presence of 1/2XMIC tobramycin (reference value: 12.5 to 13.5 mm); format: functional
Staphylococcus aureus [18] = assay: Inhibition of virulence production in Staphylococcus aureus CECT 976 biofilms assessed as diameter of protease halo at 1/2XMTC measured after 72 hrs (reference value: 11.8 to 13.3 mm); format: functional
Staphylococcus aureus [19] = assay: Inhibition of virulence production in Staphylococcus aureus CECT 976 biofilms assessed as diameter of protease halo at 1/2XMTC measured after 72 hrs in presence of 1/8XMIC tobramycin (reference value: 12.5 to 13.3 mm); format: functional
Staphylococcus aureus [20] = assay: Inhibition of virulence production in Staphylococcus aureus CECT 976 biofilms assessed as diameter of siderophores halo at 1/2XMTC measured after 48 hrs in presence of 1/4XMIC tobramycin (reference value: 10.5 +/-0.6 mm); format: functional
Staphylococcus aureus [21] = assay: Inhibition of virulence production in Staphylococcus aureus CECT 976 biofilms assessed as diameter of siderophores halo at 1/2XMTC measured after 48 hrs in presence of 1/2XMIC tobramycin (reference value: 10.5 +/-0.6 mm); format: functional
Staphylococcus aureus [22] = assay: Inhibition of virulence production in pre-established 24 hr-old Staphylococcus aureus CECT 976 biofilms assessed as diameter of lipases halo at 1XMTC measured after 48 hrs (reference value: 11.5 to 11.8 mm); format: functional
Staphylococcus aureus [23] = assay: Inhibition of virulence production in pre-established 24 hr-old Staphylococcus aureus CECT 976 biofilms assessed as diameter of lipases halo at 10XMTC measured after 48 hrs (reference value: 11.8 to 12 mm); format: functional
Staphylococcus aureus [24] = assay: Inhibition of virulence production in pre-established 24 hr-old Staphylococcus aureus CECT 976 biofilms assessed as diameter of lipases halo at 10XMTC measured after 48 hrs in presence of 1/4XMIC tobramycin (reference value: 11.5 +/-0.6 mm); format: functional
Staphylococcus aureus [25] = assay: Inhibition of virulence production in pre-established 24 hr-old Staphylococcus aureus CECT 976 biofilms assessed as diameter of lipases halo at 10XMTC measured after 48 hrs in presence of 1/2XMIC tobramycin (reference value: 11.5 to 12.3 mm); format: functional
Staphylococcus aureus [26] = assay: Inhibition of virulence production in pre-established 24 hr-old Staphylococcus aureus CECT 976 biofilms assessed as diameter of protease halo at 1XMTC measured after 72 hrs (reference value: 12.3 to 13.3 mm); format: functional
Staphylococcus aureus [27] = assay: Inhibition of virulence production in pre-established 24 hr-old Staphylococcus aureus CECT 976 biofilms assessed as diameter of protease halo at 10XMTC measured after 72 hrs in presence of 1/2XMIC tobramycin (reference value: 11.8 to 12.3 mm); format: functional
Staphylococcus aureus [28] = assay: Inhibition of virulence production in pre-established 24 hr-old Staphylococcus aureus CECT 976 biofilms assessed as diameter of siderophores halo at 10XMTC measured after 48 hrs in presence of 1/4XMIC tobramycin (reference value: 11.5 +/-0.6 mm); format: functional

Question: What does the source list for O=c1cc(CO)occ1O [KOJIC ACID]?
Answer: Activity [1]: 85%; zone of inhibition at 1000 µg/mL (Staphylococcus aureus [2]): 9.5 mm; zone of inhibition at 1000 µg/mL (Staphylococcus aureus [3]): 13.2 mm; MIC (Staphylococcus aureus [4]): 1 µg/mL; fractional inhibitory concentration index (FICI) (Pseudomonas aeruginosa [5]): 0.5; fractional inhibitory concentration index (FICI) (Staphylococcus aureus [6]): 0.3; inhibition (INH) (Staphylococcus aureus [7]): 40%; Activity (Staphylococcus aureus [8]): inactive; inhibition (INH) (Staphylococcus aureus [9]): 80%; Activity (Pseudomonas aeruginosa [10]): inactive; Activity (Pseudomonas aeruginosa [11]): inactive; Activity (Cell membrane [12]): 90%; Activity (Cell membrane [13]): inactive; Activity (Staphylococcus aureus [14]): 0 mm; Activity (Staphylococcus aureus [15]): 0 mm; Activity (Staphylococcus aureus [16]): 2.5 mm; Activity (Staphylococcus aureus [17]): 2.3 mm; Activity (Staphylococcus aureus [18]): 0 mm; Activity (Staphylococcus aureus [19]): 0 mm; Activity (Staphylococcus aureus [20]): 9.5 mm; Activity (Staphylococcus aureus [21]): 9.75 mm; Activity (Staphylococcus aureus [22]): 2.3 mm; Activity (Staphylococcus aureus [23]): 2.5 mm; Activity (Staphylococcus aureus [24]): 2.5 mm; Activity (Staphylococcus aureus [25]): 2 mm; Activity (Staphylococcus aureus [26]): 3.5 mm; Activity (Staphylococcus aureus [27]): 0 mm; Activity (Staphylococcus aureus [28]): 10.3 mm

Question: Which Activity [1] does the source give for Cc1occc(=O)c1O [MALTOL] here?
Answer: 90%

Question: And the zone of inhibition at 1000 µg/mL (Staphylococcus aureus [2])?
Answer: 17.5 mm

Question: What about the zone of inhibition at 1000 µg/mL (Staphylococcus aureus [3]) of the same compound?
Answer: 19 mm

Question: And the MIC (Staphylococcus aureus [4])?
Answer: 1 µg/mL

Question: And the “fractional inhibitory concentration index (FICI)” value (Pseudomonas aeruginosa [5])?
Answer: 0.5

Question: What about the “fractional inhibitory concentration index (FICI)” value (Staphylococcus aureus [6]) of the same compound?
Answer: 0.3

Question: And the “inhibition (INH)” value (Staphylococcus aureus [7])?
Answer: 40%

Question: And the Activity (Staphylococcus aureus [8])?
Answer: inactive

Question: What about the “inhibition (INH)” value (Staphylococcus aureus [9]) of the same compound?
Answer: 80%

Question: What about the Activity (Pseudomonas aeruginosa [10]) of the same compound?
Answer: inactive

Question: What about the Activity (Pseudomonas aeruginosa [11]) of the same compound?
Answer: inactive

Question: What about the Activity (Cell membrane [12]) of the same compound?
Answer: 90%

Question: And the Activity (Cell membrane [13])?
Answer: inactive

Question: And the Activity (Staphylococcus aureus [14])?
Answer: 0 mm

Question: And the Activity (Staphylococcus aureus [15])?
Answer: 0 mm

Question: What about the Activity (Staphylococcus aureus [16]) of the same compound?
Answer: 2 mm

Question: And the Activity (Staphylococcus aureus [17])?
Answer: 2 mm

Question: What about the Activity (Staphylococcus aureus [18]) of the same compound?
Answer: 0 mm

Question: What about the Activity (Staphylococcus aureus [19]) of the same compound?
Answer: 0 mm

Question: And the Activity (Staphylococcus aureus [20])?
Answer: 9.5 mm

Question: And the Activity (Staphylococcus aureus [21])?
Answer: 9.5 mm

Question: And the Activity (Staphylococcus aureus [22])?
Answer: 2.8 mm

Question: And the Activity (Staphylococcus aureus [23])?
Answer: 2.5 mm

Question: And the Activity (Staphylococcus aureus [24])?
Answer: 2.3 mm

Question: And the Activity (Staphylococcus aureus [25])?
Answer: 2.3 mm

Question: What about the Activity (Staphylococcus aureus [26]) of the same compound?
Answer: 3.5 mm

Question: And the Activity (Staphylococcus aureus [27])?
Answer: 0 mm

Question: What about the Activity (Staphylococcus aureus [28]) of the same compound?
Answer: 10.3 mm
